The source of these data is PubChem BioAssay AID1996.

Converted amounts (≈) assume the structure as drawn.

As usually defined, the kinetic solubility is solubility judged after dilution from a stock solution rather than from solid.

For this data set the following is noted: buffer; pH 7.4; 200.0 µM.
Compound `CC(C)CN(C(=O)CSc1nc2ccccc2[nH]1)C1CCS(=O)(=O)C1` (configuration not stated) yielded a kinetic solubility of over 0.0572 mg/mL.

As for `COC(=O)c1cc2occc2n1Cc1nc(-c2ccccc2F)oc1C`, the kinetic solubility turned out to be 0.0014 mg/mL (≈ 3.95 µM).

The compound `CC(C)CN1C(=O)c2ccc(NC(=O)C3CC3)cc2C1=O` displayed a solubility (kinetic) of 0.0005 mg/mL (≈ 1.75 µM).

`Cc1ccnc(SCc2ccc(C(=O)O)cc2)n1` came in with a kinetic solubility of over 0.039 mg/mL.

As to `CN1C(=O)c2cccc3c(S(=O)(=O)NCCc4ccccc4)ccc1c23`, the kinetic solubility was under 0.0004 mg/mL.

On to `Cc1nc(-c2ccc(C#N)cc2)cs1`, for which the kinetic solubility came to 0.0135 mg/mL (≈ 67.4 µM).

Compound `CCOC(=O)c1ccc(CN2C(=O)c3ccccc3S2(=O)=O)cc1` showed a kinetic solubility of 0.0009 mg/mL (≈ 2.61 µM).

Regarding `COc1cccc(NC(=O)CN2C(=O)NC(Cc3c[nH]c4ccccc34)C2=O)c1` (configuration not stated), the solubility (kinetic) amounted to 0.022 mg/mL (≈ 56.1 µM).

Compound `CC(C)N1C(=O)c2ccccc2C1C(=O)NCCc1ccccc1` (configuration not stated) showed a kinetic solubility of 0.048 mg/mL (≈ 149 µM).

Compound `COc1cccc(NC(=S)NC(=O)Cc2ccccc2)c1` had a kinetic solubility of 0.016 mg/mL (≈ 53.3 µM).

For `COc1cccc(C(=O)OCC(=O)c2[nH]c(C)c(C(C)=O)c2C)c1`, the solubility (kinetic) amounted to 0.0021 mg/mL (≈ 6.38 µM).

Take `COc1cc(/C=C/C(=O)O)cc(S(=O)(=O)Nc2cc(C(F)(F)F)ccc2N2CCOCC2)c1OC`: the kinetic solubility is over 0.0775 mg/mL.

`COc1nc(-c2ccccc2)c2cc(C)ccc2n1` yielded a solubility (kinetic) of 0.0154 mg/mL (≈ 61.5 µM).

The compound `CC(C)(C)OC(=O)N1CCC(CNC(=O)c2ccccc2)CC1` gave a kinetic solubility of over 0.0478 mg/mL.

`COc1ccccc1CCNC(=O)c1csc2c1CCCC2` had a solubility (kinetic) of 0.001 mg/mL (≈ 3.17 µM).

In turn, `CCc1cccc(NC(=O)C2CCCN2C(=O)Nc2ccc(C)cc2)c1` (configuration not stated) came in with a kinetic solubility of 0.0012 mg/mL (≈ 3.41 µM).

`CC(C)CC(NC(N)=O)C(=O)NCCc1ccc(Cl)cc1` (configuration not stated) displayed a solubility (kinetic) of over 0.0468 mg/mL.

With `O=C(COC(=O)Cc1ccc(Cl)cc1)Nc1ccccc1F`, the kinetic solubility came out at 0.0208 mg/mL (≈ 64.6 µM).

Take `COc1ccc2oc(C(=O)NCCC(C)C)c(C)c2c1`: the kinetic solubility is 0.0018 mg/mL (≈ 6.54 µM).

For the compound `CCCCN(C)C(=O)c1nc2ccccn2c1CN1CCSCC1`, the solubility (kinetic) was 0.0483 mg/mL (≈ 139 µM).

Consider `COc1cccc(OC)c1C(=O)Nc1ccc(Br)c(C(=O)c2ccccc2)c1`, for which the kinetic solubility stood at 0.0042 mg/mL (≈ 9.54 µM). Compared with the last compound, the solubility kinetic is about 12-fold lower.

`C1CN(c2nc(N3CCOCC3)nc(N3CCOCC3)n2)CCO1` came in with a solubility (kinetic) of 0.0206 mg/mL (≈ 61.2 µM).

In turn, `CC(C)CCOc1ccc(C2CC(=O)N(C)C2=O)cc1` (configuration not stated) had a kinetic solubility of 0.0403 mg/mL (≈ 146 µM).

In turn, `Cc1ccc(NC(=O)COC(=O)CCc2ccccc2)c(Cl)c1` yielded a solubility (kinetic) of 0.0069 mg/mL (≈ 20.8 µM).

Compound `CCc1ccc2oc(C(=O)Nc3nonc3C)c(C)c2c1` displayed a solubility (kinetic) of under 0.0002 mg/mL.

As for `COc1ccc(S(=O)(=O)N2CCN(C)CC2)cn1`, the solubility (kinetic) was over 0.0407 mg/mL.

`CC(C)N(C(=O)CSc1nc2ccccc2c(=O)[nH]1)C(C)C`: the kinetic solubility came out at 0.0464 mg/mL (≈ 145 µM).

Compound `CC(=O)c1ccc(OC(C)c2nc3ccccc3s2)cc1` (configuration not stated) gave a solubility (kinetic) of 0.0131 mg/mL (≈ 44.1 µM).

Consider `CCC(O)c1nc2ccccc2n1CCc1ccccc1` (configuration not stated), for which the solubility (kinetic) amounted to 0.0171 mg/mL (≈ 61 µM).

As to `Cc1cc(=O)[nH]c(-c2cccs2)n1`, the kinetic solubility is over 0.0288 mg/mL.

Compound `O=C(Nc1cccc(S(=O)(=O)N2CCOCC2)c1)C1CC1` yielded a solubility (kinetic) of over 0.0466 mg/mL.

`Cc1csc(NC(=O)C2CSC3(C)CCC(=O)N23)n1` (configuration not stated) registered a solubility (kinetic) of over 0.0446 mg/mL.

Compound `CC(C)(C)c1cc(NS(=O)(=O)c2cccs2)no1` displayed a solubility (kinetic) of 0.0308 mg/mL (≈ 108 µM).

The compound `Cn1c(C(=O)c2ccccc2)nc2ccccc21` had a kinetic solubility of 0.024 mg/mL (≈ 102 µM).

`O=C(NCC(=O)N1CCCC1)c1ccc(Cl)cc1` yielded a solubility (kinetic) of over 0.04 mg/mL.

In the case of `COc1ccccc1CNC(=O)COC(=O)c1cc(C)nc2ccccc12`, the kinetic solubility is 0.0146 mg/mL (≈ 40.1 µM).

In turn, `Cc1c(NS(=O)(=O)c2cc(C(=O)NCc3cccnc3)ccc2Cl)c(=O)n(-c2ccccc2)n1C` came in with a kinetic solubility of over 0.0768 mg/mL.

Regarding `O=C(NCCc1ccccc1)c1ccc2c(c1)OCCO2`, the solubility (kinetic) was over 0.0425 mg/mL.

Consider `CN1CCN(NC(=O)CC(C)(C)C)CC1`, for which the kinetic solubility was over 0.032 mg/mL.

The compound `COc1ccccc1NC(=O)c1ccc[n+]([O-])c1` returned a kinetic solubility of over 0.0366 mg/mL.

As to `CC(C)(Oc1ccc(CCNC(=O)c2ccc(Cl)cc2)cc1)C(=O)O`, the kinetic solubility was over 0.0543 mg/mL.

The compound `CCOc1ccc(N2CC(C(=O)NCc3ccccn3)CC2=O)cc1` (configuration not stated) returned a kinetic solubility of 0.0375 mg/mL (≈ 110 µM).

Take `Nc1c(C(=O)[O-])sc2nc3c(cc12)CCCC3`: the kinetic solubility came to 0.0232 mg/mL.

`CCN(Cc1ccccc1)C(=O)COC(=O)c1cc(Cl)nc(Cl)c1` had a kinetic solubility of over 0.0551 mg/mL.

Consider `O=C1CN(C(=O)CNCc2ccc(Cl)cc2)c2ccccc2N1`, for which the solubility (kinetic) stood at 0.0397 mg/mL (≈ 120 µM).

As for `CCn1cc(C(=O)Nc2cccc(C)c2)c(=O)c2ccc(C)nc21`, the solubility (kinetic) is under 0.0002 mg/mL.

`C=CCOc1cccc(/C=C\c2nc(O)c([N+](=O)[O-])c(=O)[nH]2)c1` registered a solubility (kinetic) of over 0.0473 mg/mL.

For `CN1CCN(c2oc(-c3ccccc3)nc2S(=O)(=O)c2ccccc2)CC1`, the kinetic solubility amounted to 0.0014 mg/mL (≈ 3.65 µM).

Compound `Cc1cccc(NC(=O)Nc2cccc3ccccc23)c1` gave a kinetic solubility of under 0.0003 mg/mL.

For the compound `COc1ccc(S(=O)(=O)Nc2cc(Sc3ncn[nH]3)c(O)cc2C)cc1`, the solubility (kinetic) was over 0.0589 mg/mL.

`COc1ccc(OCCNC(=O)CCCO)cc1` registered a solubility (kinetic) of 0.004 mg/mL (≈ 15.8 µM).

For the compound `FC(F)(F)c1ccc(NC2=NCCC2)cc1`, the solubility (kinetic) is over 0.0342 mg/mL.
